Data from US9765105B2, “Macrolide compound” (Pulike Biological Engineering, Inc., priority 2013, dated 2017).

What was measured:
Experiment in all cases: in vitro susceptibility, MIC by mini broth dilution
Assay type in all cases: cell-based
[1] = test system: Staphylococcus aureus CVCC26003; settings: strain CVCC26003
Outline: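 MICs were determined by mini broth dilution under NCCLS standards in CAMHB, using revived S. aureus CVCC26003 subcultured 20 h at 35° C. Compounds were two-fold serially diluted in DMSO across 11 wells, with duplicate rows. Bacterial suspension was diluted 1:200 in medium before inoculation.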

[2] = test system: Actinobacillus pleuropneumoniae CVCC262; settings: strain CVCC262
Outline: (§1)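 MICs determined by mini broth dilution following NCCLS standards, using two-fold serial dilutions of compound in DMSO across 11 gradients, in duplicate rows. Strains were revived and subcultured at 35 °C for 20 h. Bacterial suspension was diluted 1:200 in liquid medium.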

Haemophilus parasuis = test system: Haemophilus parasuis
Outline: as §1

[3] = test system: Pasteurella multocida CVCC399; settings: strain CVCC399
Outline: as §1

[4] = test system: Streptococcus equines CVCC556; settings: strain CVCC556
Outline: as §1

MIC values, Staphylococcus aureus CVCC26003 [1] [ug/mi]	MIC values, Actinobacillus pleuropneumoniae CVCC262 [2] [ug/mi]	MIC values, Haemophilus parasuis (Haemophilus parasuis) [ug/mi]	MIC values, Pasteurella multocida CVCC399 [3] [ug/mi]	MIC values, Streptococcus equines CVCC556 [4] [ug/mi]	Compound
0.5	0.25	0.25	0.5	0.5	CCCN1C[C@H](C)[C@@H](O)[C@](C)(O)[C@@H](CC)OC(=O)[C@H](C)[C@@H](O[C@H]2C[C@@](C)(OC)[C@](O)(CNCCCCl)[C@H](C)O2)[C@H](C)[C@@H](O[C@@H]2O[C@H](C)C[C@H](N(C)C)[C@H]2O)[C@](C)(O)C[C@H]1C [syzx-175]
0.25	0.5	0.25	1	0.25	CCCN1CC(C)C(O)C(C)(O)C(CC)OC(=O)C(C)C(OC2CC(C)(OC)C(O)(CNCCN3CCCC3)C(C)O2)C(C)C(OC2OC(C)CC(N(C)C)C2O)C(C)(O)CC1C (centres unmarked) [syzx-190]
0.25	0.25	0.25	1	0.25	CCCN1C[C@H](C)[C@@H](O)[C@](C)(O)[C@@H](CC)OC(=O)[C@H](C)[C@@H](O[C@H]2C[C@@](C)(OC)[C@](O)(CNC(CC)C(=O)O)[C@H](C)O2)[C@H](C)[C@@H](O[C@@H]2O[C@H](C)C[C@H](N(C)C)[C@H]2O)[C@](C)(O)C[C@H]1C (some centres unmarked) [syzx-141]
0.25	0.5	8	0.5	0.25	CCCN1C[C@H](C)[C@@H](O)[C@](C)(O)[C@@H](CC)OC(=O)[C@H](C)[C@@H](O[C@H]2C[C@@](C)(OC)[C@](O)(CNC3CCCC3)[C@H](C)O2)[C@H](C)[C@@H](O[C@@H]2O[C@H](C)C[C@H](N(C)C)[C@H]2O)[C@](C)(O)C[C@H]1C [syzx-130]
0.25	0.25	0.25	1	0.25	CCCC(C)NC[C@]1(O)[C@H](C)O[C@@H](O[C@H]2[C@H](C)[C@@H](O[C@@H]3O[C@H](C)C[C@H](N(C)C)[C@H]3O)[C@](C)(O)C[C@@H](C)N(CCC)C[C@H](C)[C@@H](O)[C@](C)(O)[C@@H](CC)OC(=O)[C@@H]2C)C[C@@]1(C)OC (some centres unmarked) [syzx-163]
0.5	0.5	0.5	1	0.25	CCCN1C[C@H](C)[C@@H](O)[C@](C)(O)[C@@H](CC)OC(=O)[C@H](C)[C@@H](O[C@H]2C[C@@](C)(OC)[C@](O)(CNCCCN3CCOCC3)[C@H](C)O2)[C@H](C)[C@@H](O[C@@H]2O[C@H](C)C[C@H](N(C)C)[C@H]2O)[C@](C)(O)C[C@H]1C [syzx-188]
0.25	0.25	0.25	0.5	0.25	CCCN1C[C@H](C)[C@@H](O)[C@](C)(O)[C@@H](CC)OC(=O)[C@H](C)[C@@H](O[C@H]2C[C@@](C)(OC)[C@](O)(CNCc3ccc(Cl)cc3)[C@H](C)O2)[C@H](C)[C@@H](O[C@@H]2O[C@H](C)C[C@H](N(C)C)[C@H]2O)[C@](C)(O)C[C@H]1C [syzx-120]

The remaining lines, values behind:

Compound	MIC values, Staphylococcus aureus CVCC26003 [1] [ug/mi]	MIC values, Actinobacillus pleuropneumoniae CVCC262 [2] [ug/mi]	MIC values, Haemophilus parasuis (Haemophilus parasuis) [ug/mi]	MIC values, Pasteurella multocida CVCC399 [3] [ug/mi]	MIC values, Streptococcus equines CVCC556 [4] [ug/mi]
CCC1OC(=O)C(C)C(OC2CC(C)(OC)C(O)(CNCNCc3ccc(C=O)cc3)C(C)O2)C(C)C(OC2OC(C)CC(N(C)C)C2O)C(C)(O)CC(C)NCC(C)C(O)C1(C)O [syzx-39, (2R,3S,4R,5S,8R,10R,11R,12S,13S,14R)-13-[(2,6-dideoxy-3-C-methyl-3-O-methyl-4-C-[[[(4-formyl-benzyl-amino)-methyl]amino]-methyl]-α-L-ribopyranosyl)oxy]-2-ethyl-3,4,10-trihydroxy-3,5,8,10,12,14-hexamethyl-11-[[3,4,6-trideoxy-3-(dimethylamino)-β-D-xylo-hexopyranosy]oxy]-1-oxa-7-azacyclopentadecan-15-one]	0.25	0.25	0.25	0.5	0.5
CCCN1C[C@H](C)[C@@H](O)[C@](C)(O)[C@@H](CC)OC(=O)[C@H](C)[C@@H](O[C@H]2C[C@@](C)(OC)[C@](O)(CNc3ccc(Cl)nc3)[C@H](C)O2)[C@H](C)[C@@H](O[C@@H]2O[C@H](C)C[C@H](N(C)C)[C@H]2O)[C@](C)(O)C[C@H]1C [syzx-208]	4	4	4	4	0.5
CCCN1C[C@H](C)[C@@H](O)[C@](C)(O)[C@@H](CC)OC(=O)[C@H](C)[C@@H](O[C@H]2C[C@@](C)(OC)[C@](O)(CNC(=O)c3ccccc3)[C@H](C)O2)[C@H](C)[C@@H](O[C@@H]2O[C@H](C)C[C@H](N(C)C)[C@H]2O)[C@](C)(O)C[C@H]1C [syzx-219]	2	4	4	8	0.5
CCCN1C[C@H](C)[C@@H](O)[C@](C)(O)[C@@H](CC)OC(=O)[C@H](C)[C@@H](O[C@H]2C[C@@](C)(OC)[C@](O)(CNc3ccc(Cl)nn3)[C@H](C)O2)[C@H](C)[C@@H](O[C@@H]2O[C@H](C)C[C@H](N(C)C)[C@H]2O)[C@](C)(O)C[C@H]1C [syzx-132]	1	0.5	0.5	2	0.25
CCCN1C[C@H](C)[C@@H](O)[C@](C)(O)[C@@H](CC)OC(=O)[C@H](C)[C@@H](O[C@H]2C[C@@](C)(OC)[C@](O)(CNc3cccnc3Cl)[C@H](C)O2)[C@H](C)[C@@H](O[C@@H]2O[C@H](C)C[C@H](N(C)C)[C@H]2O)[C@](C)(O)C[C@H]1C [syzx-218]	2	4	4	8	0.25
CCCN1C[C@H](C)[C@@H](O)[C@](C)(O)[C@@H](CC)OC(=O)[C@H](C)[C@@H](O[C@H]2C[C@@](C)(OC)[C@](O)(CNc3ccnc(Cl)c3)[C@H](C)O2)[C@H](C)[C@@H](O[C@@H]2O[C@H](C)C[C@H](N(C)C)[C@H]2O)[C@](C)(O)C[C@H]1C [syzx-138]	2	2	2	8	0.5
CCCN1C[C@H](C)[C@@H](O)[C@](C)(O)[C@@H](CC)OC(=O)[C@H](C)[C@@H](O[C@H]2C[C@@](C)(OC)[C@](O)(CNc3ccc(C)c(C)c3)[C@H](C)O2)[C@H](C)[C@@H](O[C@@H]2O[C@H](C)C[C@H](N(C)C)[C@H]2O)[C@](C)(O)C[C@H]1C [syzx-184]	2	2	2	4	0.5
CCC(NC[C@]1(O)[C@H](C)O[C@@H](O[C@H]2[C@H](C)[C@@H](O[C@@H]3O[C@H](C)C[C@H](N(C)C)[C@H]3O)[C@](C)(O)C[C@@H](C)NC[C@H](C)[C@@H](O)[C@](C)(O)[C@@H](CC)OC(=O)[C@@H]2C)C[C@@]1(C)OC)C(=O)O (stereo partly drawn) [syzx-41, (2R,3S,4R,5S,8R,10R,11R,12S,13S,14R)-13-[(2,6-dideoxy-3-C-methyl-3-O-methyl-4-C-[[butyrate-2-amino]-methyl]-α-L-ribopyranosyl)oxy]-2-ethyl-3,4,10-trihydroxy-3,5,8,10,12,14-hexamethyl-11-[[3,4,6-trideoxy-3-(dimethylamino)-β-D-xylo-hexopyranosy]oxy]-1-oxa-7-azacyclopentadecan-15-one]	2	1	1	4	0.5
CCC1OC(=O)C(C)C(OC2CC(C)(OC)C(O)(CNc3cc(C)ccc3F)C(C)O2)C(C)C(OC2OC(C)CC(N(C)C)C2O)C(C)(O)CC(C)NCC(C)C(O)C1(C)O [syzx-96, (2R,3S,4R,5S,8R,10R,11R,12S,13S,14R)-13-[(2,6-dideoxy-3-C-methyl-3-O-methyl-4-C-[(2-fluoro-5-methylphenyl-amino)-methyl]-α-L-ribopyranosyl)oxy]-2-ethyl-3,4,10-trihydroxy-3,5,8,10,12,14-hexamethyl-11-[[3,4,6-trideoxy-3-(dimethylamino)-β-D-xylo-hexopyranosy]oxy]-1-oxa-7-azacyclopentadecan-15-one]	1	0.5	0.5	2	0.25
